Columns and labels:
Assay type in all cases: cell-based, murine
heme oxygenase 1 (HO-1) = assay: Nrf2-dependent HO-1 transcription in RAW264.7 cells (qPCR, Taqman); conditions: for HO-1 steady-state mRNA levels, fold vs media and vehicle controls: 8 hours (maximum)
Experimental: (§1) Murine macrophage cells (RAW264.7) were treated with the purified thiolated NO2—OA for 4 hours. RNA was extracted using the Trizol method, quantified using nanodrop technology, reversed transcribed into cDNA and then quantitative PCR was performed using Taqman assays. […] The concentration of 50 μM OA-NO2—Sx induced a similar Nrf2 activation profile for HO-1, NQO-1 and GCLM (18.0-, 6.8- and 6.3-fold, respectively) as 5 μM OA-NO2 (23.5-, 7.7-, 6.8-fold for HO-1, NQO1 and GCLM, respectively) at the 4 hour time point.
(§2) Experimental details: In every experiment, RAW264.7 cells were treated with 7.5, 15, 50 and 100 μM OA-NO2—Sx, 5 μM OA-NO2 two concentrations of methanol (MeOH) to match the lowest and highest amount of vehicle (5 and 100 μM) and a media control only. Within each experiment, there were two or three biological replicates per treatment group. After treatment, RNA was extracted using the Trizol method, quantified using nanodrop technology, reversed transcribed into cDNA and then quantitative PCR (qPCR) was performed using Taqman assays. In each qPCR experiment, there were two technical replicates per sample of RNA. The two technical replicates were then averaged for each biological replicate. The bars in the graph represent mean±standard error of the mean (SEM) of the biological replicates.
(§3) Murine macrophage cells (RAW264.7) were treated with 50 μM OA-NO2—Sx, 5 μM OA-NO2, MeOH (the highest amount of vehicle added to RAW cells to match the highest concentration, which is 50 μM for OA-NO2—Sx) and media alone for 4, 8, 16 and 24 hours. RNA was extracted at each time point using the Trizol method, quantified using nanodrop technology, reversed transcribed into cDNA and then quantitative PCR was performed using Taqman assays. […] There was a similar trend for GCLM mRNA levels (FIG. 7) remained elevated for OA-NO2—Sx (30.0-fold) compared to 1.7-fold for 5 μM OA-NO2 treatment at 16 hours.
(§4) Experimental details: Murine macrophage cells (RAW264.7) were treated with 50 μM OA-NO2—Sx, 5 μM OA-NO2, MeOH (the highest amount of vehicle added to RAW cells to match the highest concentration, which is 50 μM for OA-NO2—Sx) and media alone for 4, 8, 16 and 24 hours. RNA was extracted at each time point using the Trizol method, quantified using nanodrop technology, reversed transcribed into cDNA and then quantitative PCR for HO-1, NQO-1 and GCLM (multiplexed with actin) was performed using Taqman assays. Within each independent experiment, every treatment had at least two biological replicates at each time point. The data represents two independent experiments as mean±SEM.

[1] = test system: NAD(P)H dehydrogenase quinone 1 (NQO-1); assay: Nrf2-dependent NQO-1 transcription in RAW264.7 cells (qPCR, Taqman); conditions: for NQO-1 transcription, fold vs controls / NQO-1 mRNA levels, fold: RAW264.7
Experimental: as §1, §2, §3, §4

[2] = test system: glutamate-cysteine ligase modifier subunit (GCLM); assay: Nrf2-dependent GCLM transcription in RAW264.7 cells (qPCR, Taqman); conditions: for GCLM transcription, fold vs controls / GCLM mRNA levels, fold: RAW264.7; for GCLM mRNA levels, fold: 16 hours
Experimental: as §1, §2, §3, §4

[3] = 7.5, 15, 50 and 100 μM, 4 hours, compared to controls

Row | Compound | HO-1 transcription, fold vs controls (heme oxygenase 1 (HO-1); 50 μM OA-NO2—Sx, 4 hours, RAW264.7) | HO-1 steady-state mRNA levels, fold vs media and vehicle controls (heme oxygenase 1 (HO-1); 50 μM, RAW264.7) | HO-1 mRNA levels, fold (heme oxygenase 1 (HO-1); 50 μM, 16 hours, RAW264.7) | HO-1 mRNA levels (heme oxygenase 1 (HO-1); 50 μM, 24 hours, RAW264.7) | Nrf2-dependent transcription of HO-1, dose response (heme oxygenase 1 (HO-1); [3]) | NQO-1 transcription, fold vs controls ([1]; 50 μM OA-NO2—Sx, 4 hours) | NQO-1 mRNA levels, fold ([1]; 50 μM, 16 hours) | Nrf2-dependent transcription of NQO-1, dose response [1, 3] | GCLM transcription, fold vs controls ([2]; 50 μM OA-NO2—Sx, 4 hours) | GCLM mRNA levels, fold ([2]; 50 μM) | Nrf2-dependent transcription of GCLM, dose response [2, 3] | HO-1 transcription, fold vs controls (heme oxygenase 1 (HO-1); 5 μM OA-NO2, 4 hours, RAW264.7) | HO-1 steady-state mRNA levels, fold vs media and vehicle controls (heme oxygenase 1 (HO-1); 5 μM, RAW264.7) | HO-1 mRNA levels (heme oxygenase 1 (HO-1); 5 μM, 16 hours, RAW264.7) | HO-1 mRNA levels (heme oxygenase 1 (HO-1); 5 μM, 24 hours, RAW264.7) | NQO-1 transcription, fold vs controls ([1]; 5 μM OA-NO2, 4 hours) | NQO-1 mRNA levels, fold ([1]; 5 μM, 8 hours) | NQO-1 mRNA levels, fold ([1]; 5 μM, 16 hours) | GCLM transcription, fold vs controls ([2]; 5 μM OA-NO2, 4 hours) | GCLM mRNA levels, fold ([2]; 5 μM)
1 | CCCCCCCCC(SC(CCCCCCCC)C(CCCCCCCC(=O)O)[N+](=O)[O-])C(CCCCCCCC(=O)O)[N+](=O)[O-] (centres unmarked) [OA-NO2—Sx, thiolated nitro-oleic acid] | 18.0 fold | 116.5 fold | 7.5 fold | returned to basal levels | dose-dependent increase | 6.8 fold | 701.1 fold | dose-dependent increase | 6.3 fold | 30.0 fold | dose-dependent increase |  |  |  |  |  |  |  |  | 
2 | Nitro-oleic acid [OA-NO2, reference compound] |  |  |  |  |  |  |  |  |  |  |  | 23.5 fold | 30.7 fold | returned to baseline | returned to basal levels | 7.7 fold | 115.0 fold | 98.9 fold | 6.8 fold | 1.7 fold
